{"source": "patent US20260216176A1", "about": "“USE OF PCLX-001 OR PCLX-002 AS A RADIOSENSITIZER” (ACYLEX PHARMACEUTICALS INC., priority 2023, published 2026)", "key": {"[1]": {"tested_on": "U251 glioblastoma cell line", "test": "Alamar Blue cell viability assay of radiosensitization (PCLX-001 pre-treatment plus radiation)", "assay_type": "cell-based, human", "experimental": "Cancer cell lines of human origin were cultivated in the suitable culture medium enriched with 10% fetal bovine serum (FBS) and a 1% mixture of penicillin-streptomycin. These were incubated at a temperature of 37° C. in a 5% CO2 humid environment. The cells were sub-cultured upon reaching a confluence of 80% with the aid of 0.25% trypsin-EDTA [Freshney, R. I., 2010. Culture of animal cells: a manual of basic technique and specialized applications. John Wiley & Sons].\nPCLX-001 was prepared at several concentrations for use as a radiosensitizing drug (serial dilutions from 1000 nM, including control 0 nM) in culture media. The cancer cells cultures were then treated with the aforementioned PCLX-001 concentrations and left for 24 h, 48 h, 72 h, and 96 h to allow for maximum pharmacodynamic effect. The cells were then plated into 96-well plates at 5000 cells per well and left to attach overnight while continuing to incubate in the drug/media cocktail.\nUpon completion of the PCLX-001 incubation period, a single radiation dose was administered to the cells using a preclinical irradiator. The quantity of radiation was decided based on the results from prior optimization tests [Hall, E. J., Giaccia, A. J., 2012. Radiobiology for the radiologist. Lippincott Williams & Wilkins.]. The radiation doses included 0, 2, and 4 Gy, which corresponds to the most common clinical radiation dose fractions used.\n72 hours post-radiation, an Alamar Blue Assay was conducted to determine cell viability. Alamar Blue dye was added to the media (10% v/v) and the plates were incubated at 37° C. for 4 hours. Using a fluorescence plate reader, fluorescence was measured at excitation/emission wavelengths of 560/590 nm. To quantify cell viability, the results were normalized to the data from untreated controls [Ahmed, S. A., et al., 1994].\nThe data were shown as mean±standard deviation (SD) gathered from three or more independent tests. A one-way ANOVA followed by a post hoc Tukey test was used for statistical analyses to find significant disparities between treatment groups. […]"}, "[2]": {"test": "Plasma pharmacokinetics in phase I clinical trial NCT04836195 (oral daily dose)", "assay_type": "in vivo, human", "conditions": "for AUC(0-t) / Cmax / Tmax / half-life: human, plasma; for AUC(0-t): read-out: AUC0-24 (mean, SD); for Cmax: read-out: Cmax (mean, SD)", "experimental": "A phase I, multicenter, nonrandomized, open-label study of zelenirstat, entitled “Phase I Trial of PCLX-001 in B-cell Non-Hodgkin Lymphoma and Advanced Solid Malignancies” (reference 6), is being conducted and is registered at clinicaltrials.gov as NCT04836195. In this study, PCLX-001 was administered as an oral daily dose every morning to patients with advanced cancer, on 28-day cycles, until toxicity or progressive disease. Peripheral blood samples were collected over six time points in the first 8 hours of cycle 1 day 1, and again on cycle 1 day 15, with pretreatment day 1 levels obtained with every subsequent cycle. PCLX-001/zelenirstat plasma concentrations were quantified using a validated ultra-performance liquid chromatography with tandem mass spectrometry detection and analyzed using a nonlinear mixed-effects model."}, "[3]": {"conditions": "oral, 20 mg, 20 mg, Cycle 1 D15"}, "[4]": {"conditions": "oral, 40 mg, 40 mg, Cycle 1 D15"}, "[5]": {"conditions": "oral, 70 mg, 70 mg, Cycle 1 D15"}, "[6]": {"conditions": "oral, 100 mg, 100 mg, Cycle 1 D1"}, "[7]": {"conditions": "oral, 100 mg, 100 mg, Cycle 1 D15"}, "[8]": {"conditions": "oral, 140 mg, 140 mg, Cycle 1 D1"}, "[9]": {"conditions": "oral, 140 mg, 140 mg, Cycle 1 D15"}, "[10]": {"conditions": "oral, 210 mg, 210 mg, Cycle 1 D1"}, "[11]": {"conditions": "oral, 210 mg, 210 mg, Cycle 1 D15"}}, "note": "Where two headings read alike, the source gives them in different places."}
{"smiles": "Cc1c(N[S+](=O)(O)c2c(Cl)cc(-c3ccnc(N4CCNCC4)c3)cc2Cl)c(CC(C)C)nn1C", "note": "[PCLX-001]", "values": [{"measurement": "dose-enhancement factor", "setting": "[1]; U251, below 25 nM", "value": "below 1.2"}, {"measurement": "toxicity of the drug itself versus radiotherapy effect", "setting": "[1]; above 150 nM", "value": "toxicity of the drug itself exceeds the effect of typical radiotherapy dose-per-fraction's effect"}, {"measurement": "increase of radiotherapy's effectiveness", "setting": "[1]; cancer cell line tested (human glioblastoma)", "value": "about 80%"}, {"measurement": "AUC(0-t)", "setting": "[2]; oral, 20 mg, 20 mg, Cycle 1 D1", "value": 1580, "unit": "ng·h/mL"}, {"measurement": "Cmax", "setting": "[2]; oral, 20 mg, 20 mg, Cycle 1 D1", "value": 276, "unit": "ng/mL"}, {"measurement": "Tmax", "setting": "[2]; oral, 20 mg, 20 mg, Cycle 1 D1, read-out: Tmax (median, range)", "value": 2, "unit": "h"}, {"measurement": "half-life", "setting": "[2]; oral, 20 mg, 20 mg, Cycle 1 D1, read-out: t½ (mean, SD) (converted)", "value": 6.7, "unit": "h"}, {"measurement": "AUC(0-t)", "setting": "[2]; [3]", "value": 2070, "unit": "ng·h/mL"}, {"measurement": "Cmax", "setting": "[2]; [3]", "value": 359, "unit": "ng/mL"}, {"measurement": "Tmax", "setting": "[2]; oral, 20 mg, 20 mg, Cycle 1 D15, read-out: Tmax (median, range)", "value": 1, "unit": "h"}, {"measurement": "half-life", "setting": "[2]; oral, 20 mg, 20 mg, Cycle 1 D15, read-out: t½ (mean, SD) (converted)", "value": 7.4, "unit": "h"}, {"measurement": "AUC(0-t)", "setting": "[2]; oral, 40 mg, 40 mg, Cycle 1 D1", "value": 4820, "unit": "ng·h/mL"}, {"measurement": "Cmax", "setting": "[2]; oral, 40 mg, 40 mg, Cycle 1 D1", "value": 848, "unit": "ng/mL"}, {"measurement": "Tmax", "setting": "[2]; oral, 40 mg, 40 mg, Cycle 1 D1, read-out: Tmax (median, range)", "value": 0.9, "unit": "h"}, {"measurement": "half-life", "setting": "[2]; oral, 40 mg, 40 mg, Cycle 1 D1, read-out: t½ (mean, SD) (converted)", "value": 9.2, "unit": "h"}, {"measurement": "AUC(0-t)", "setting": "[2]; [4]", "value": 7060, "unit": "ng·h/mL"}, {"measurement": "Cmax", "setting": "[2]; [4]", "value": 774, "unit": "ng/mL"}, {"measurement": "Tmax", "setting": "[2]; oral, 40 mg, 40 mg, Cycle 1 D15, read-out: Tmax (median, range)", "value": 2.2, "unit": "h"}, {"measurement": "half-life", "setting": "[2]; oral, 40 mg, 40 mg, Cycle 1 D15, read-out: t½ (mean, SD) (converted)", "value": 9.7, "unit": "h"}, {"measurement": "AUC(0-t)", "setting": "[2]; oral, 70 mg, 70 mg, Cycle 1 D1", "value": 5650, "unit": "ng·h/mL"}, {"measurement": "Cmax", "setting": "[2]; oral, 70 mg, 70 mg, Cycle 1 D1", "value": 665, "unit": "ng/mL"}, {"measurement": "Tmax", "setting": "[2]; oral, 70 mg, 70 mg, Cycle 1 D1, read-out: Tmax (median, range)", "value": 3.9, "unit": "h"}, {"measurement": "half-life", "setting": "[2]; oral, 70 mg, 70 mg, Cycle 1 D1, read-out: t½ (mean, SD) (converted)", "value": 9.5, "unit": "h"}, {"measurement": "AUC(0-t)", "setting": "[2]; [5]", "value": 6610, "unit": "ng·h/mL"}, {"measurement": "Cmax", "setting": "[2]; [5]", "value": 467, "unit": "ng/mL"}, {"measurement": "Tmax", "setting": "[2]; oral, 70 mg, 70 mg, Cycle 1 D15, read-out: Tmax (median, range)", "value": 4.1, "unit": "h"}, {"measurement": "AUC(0-t)", "setting": "[2]; [6]", "value": 18900, "unit": "ng·h/mL"}, {"measurement": "Cmax", "setting": "[2]; [6]", "value": 2190, "unit": "ng/mL"}, {"measurement": "Tmax", "setting": "[2]; oral, 100 mg, 100 mg, Cycle 1 D1, read-out: Tmax (median, range)", "value": 2, "unit": "h"}, {"measurement": "half-life", "setting": "[2]; oral, 100 mg, 100 mg, Cycle 1 D1, read-out: t½ (mean, SD) (converted)", "value": 8, "unit": "h"}, {"measurement": "AUC(0-t)", "setting": "[2]; [7]", "value": 24700, "unit": "ng·h/mL"}, {"measurement": "Cmax", "setting": "[2]; [7]", "value": 2300, "unit": "ng/mL"}, {"measurement": "Tmax", "setting": "[2]; oral, 100 mg, 100 mg, Cycle 1 D15, read-out: Tmax (median, range)", "value": 4, "unit": "h"}, {"measurement": "half-life", "setting": "[2]; oral, 100 mg, 100 mg, Cycle 1 D15, read-out: t½ (mean, SD) (converted)", "value": 12, "unit": "h"}, {"measurement": "AUC(0-t)", "setting": "[2]; [8]", "value": 11900, "unit": "ng·h/mL"}, {"measurement": "Cmax", "setting": "[2]; [8]", "value": 1770, "unit": "ng/mL"}, {"measurement": "Tmax", "setting": "[2]; oral, 140 mg, 140 mg, Cycle 1 D1, read-out: Tmax (median, range)", "value": 1, "unit": "h"}, {"measurement": "half-life", "setting": "[2]; oral, 140 mg, 140 mg, Cycle 1 D1, read-out: t½ (mean, SD) (converted)", "value": 7.2, "unit": "h"}, {"measurement": "AUC(0-t)", "setting": "[2]; [9]", "value": 8150, "unit": "ng·h/mL"}, {"measurement": "Cmax", "setting": "[2]; [9]", "value": 1340, "unit": "ng/mL"}, {"measurement": "Tmax", "setting": "[2]; oral, 140 mg, 140 mg, Cycle 1 D15, read-out: Tmax (median, range)", "value": 2, "unit": "h"}, {"measurement": "half-life", "setting": "[2]; oral, 140 mg, 140 mg, Cycle 1 D15, read-out: t½ (mean, SD) (converted)", "value": 10.4, "unit": "h"}, {"measurement": "AUC(0-t)", "setting": "[2]; [10]", "value": 14700, "unit": "ng·h/mL"}, {"measurement": "Cmax", "setting": "[2]; [10]", "value": 1770, "unit": "ng/mL"}, {"measurement": "Tmax", "setting": "[2]; oral, 210 mg, 210 mg, Cycle 1 D1, read-out: Tmax (median, range)", "value": 3, "unit": "h"}, {"measurement": "half-life", "setting": "[2]; oral, 210 mg, 210 mg, Cycle 1 D1, read-out: t½ (mean, SD) (converted)", "value": 7.8, "unit": "h"}, {"measurement": "AUC(0-t)", "setting": "[2]; [11]", "value": 27600, "unit": "ng·h/mL"}, {"measurement": "Cmax", "setting": "[2]; [11]", "value": 2940, "unit": "ng/mL"}, {"measurement": "Tmax", "setting": "[2]; oral, 210 mg, 210 mg, Cycle 1 D15, read-out: Tmax (median, range)", "value": 2, "unit": "h"}, {"measurement": "half-life", "setting": "[2]; oral, 210 mg, 210 mg, Cycle 1 D15, read-out: t½ (mean, SD) (converted)", "value": 7.7, "unit": "h"}, {"measurement": "Tmax", "setting": "[2]; oral, patients taking proton pump inhibitors (PPI), read-out: maximum Tmax value observed", "value": "~8", "unit": "h"}, {"measurement": "Tmax", "setting": "[2]; oral, patients taking proton pump inhibitors (PPI), read-out: median Tmax range", "value": "1 to 6", "unit": "h"}, {"measurement": "half-life", "setting": "[2]; oral, C1D1, read-out: mean terminal half-life across the dose cohorts", "value": "6.7 to 9.5", "unit": "h"}, {"measurement": "Tmax", "setting": "[2]; po, single oral 20 mg to 210 mg, C1D1, read-out: median Tmax values across the dose cohorts", "value": "1 to 4", "unit": "h"}, {"measurement": "accumulation following repeated administration", "setting": "[2]; majority of patients, 14 days", "value": "< 2", "unit": "fold"}, {"measurement": "accumulation beyond Day 15", "setting": "[2]; pre-dose concentrations over multiple cycles", "value": "no accumulation was apparent"}]}
